Laboratory results reported in patent EP1690525B1, “Gamma-polyglutamate hydrogels for use as super moisturizers in cosmetic and personal care products” (Tung Hai Biotechnology Corporation, priority 2005, dated 2006).

Assays:
[1] = system: outside surface of the upper arm skin of a test panelist; assay: Skin irritation patch test, Draize method; format: in vivo, human; details: 5.0% in facial moisture mask; patched 24 hours
From the text: The small molecular weight γ-polyglutamate in […] with 200,000 to 400,000 daltons (designated as LM), high molecular weight γ-polyglutamate in Ca^++ form with 1.15x10^6 to 1.35x10^6 daltons (designated as HM), and γ-polyglutamate hydrogel (prepared from γ-polyglutamate in Na^+ form) with molecular weight from 15x10^6 to 100x10^6 or higher (cross-linked with gamma ray irradiation) were used as super moisturizers. The species and proportions of the ingredients contained in the exemplified facial moisture mask formulation are listed in Table 5. Table 5. Facial Moisture Mask Formulation
The moisture mask samples of 25 cm^2 were taken from experimental example 4 and patched evenly on the outside surface of the upper arm skin of a test panelist. A group of 10 panelists participated in this test. After 24 hours, then the mask samples were removed and the skin was observed carefully for any degree of irritation, and the results were recorded according to Draize method (see Appraisel of the Safety of Chemicals in Food, Drugs and Cosmetics. Pharmacolo. 93:377-392, 1948, Draize, F. et al.). Table 6. The film formation time, capacity increase ratio (%), the pH value of the skin, and the Draize score after applying facial moisture masks

[2] = system: outside skin surface of the arm of a test panelist; assay: Moisture retention of the skin after peeling off facial moisture mask (capacitance, Skin Analysis SHP88); format: in vivo, human; details: 5.0% in facial moisture mask; mask film peeled off after 15 minutes; 23°C, RH 65%
Pig skin [3] = assay: Ex-vivo pig skin: skin moisture retention by corneometry; details: 6.5% in skin moisture cream, 23°C and RH 60%
Description: Table 9. Skin moisture cream formulation.
Pig skin was used for this experiment. The skin moisture was measured at 23 °C under an environment of relative humidity (RH) of 60% with a probe of corneometer HM99 of Courage^+Khazaka Electronic Gmbh, Germany.

Pig skin [4] = assay: Ex-vivo pig skin: Trans-Epidermal-Water-Loss (TEWL); set-up: unit not given here; details: 6.5% in skin moisture cream
tyrosinase = assay: Inhibition of tyrosinase activity (absorbency at 475 nm); format: biochemical; details: 1.0% sample
From the text: Although the formation of black pigment melanin on skin is complicated, it is generally realized that tyrosine is oxidized to DOPA (Dihydroxy Phenyalanine) by the catalysis of tyrosinase from melansome of melanocyte. The DOPA is further oxidized and finally converted into colored melanin-protein complex. The small molecular weight γ-polyglutamate in Na^+ form with 200,000 to 350,000 daltons (designated as LM) and high molecular weight γ-polyglutamate in Na^+ form with 1.15x10^6 to 1.35x10^6 daltons (designated as HM) were used in this experiment to determine the effectiveness in inhibiting the tyrosinase activity. • a. […] Sample of the reaction solution is then taken for measuring the absorbency at 475 nm, and recorded as At. • b. Determination of the blank absorbance of tyrosinase solutuion: • Replace 0.1 ml of buffer solution with tyrosinase solution, and repeat the same procedure in item (a), and record the absorbency at 475 nm as A1. • c. Replace 1 ml sample solution with buffer solution, and repeat the same procedure in item (a), and record the absorbance at 475 nm as Ab. • d. Determination of total blank absorbance of test solution: • Replace 1 ml sample solution with buffer solution, and 0.1 ml of tyrosinase solution with buffer solution, and repeat the procedure in item (a), and record the absorbency at 475 nm as Ao. • e. […]

[5] = system: outside skin surface of the panelist's arm; assay: Skin moisturization by corneometer HM99 (ΔCU=CU2-CU1); format: in vivo, human; details: 2% in skin moisture cream
Description: Table 7: Skin moisture cream formulation. The cosmetic products from experimental example 6 were evaluated for the effectiveness of skin moisturization. A group of 5 test panelists participated in this experiment. The panelists were first put in a room with a temperature at 22 °C and relative humidity (RH) 60% for 15 minutes. A probe of the corneometer HM99 of Courage^+Khazaka Electronic Gmbh, Germany was used to measure the skin moisture of the outside skin surface of the panelist's arm to determine the base line as (CU1). A sample of 0.2g from the formulation of experimental example 6 was evenly spread over an area of 25 cm^2 of the skin surface for 2 minutes before the excess formulation sample was removed. After 2 hours the skin moisture was measured again and recorded as (CU2). Before the measurement the panelists were placed in a room with temperature at 22 °C and RH 60% for 15 minutes. The atteration of skin moisture is then calculated as ΔCU=CU2-CU1.

[6] = system: inside skin surface of a test panelist's arm; assay: Water retention on skin after skin vital moisture cream (capacitance, Skin Analysis SHP88); format: in vivo, human; details: 5% in skin vital moisture cream, 22°C and RH 65%
Description: Table 2: Skin vital moisture cream formulation. […] A sample of 0.2g from each of the 5 products was evenly spread over an area of about 25 cm^2 on the inside skin surface of a test panelist's arm. A group of 10 panelists participated in this test. The water retention on the skin surface was measured at 23 °C under an environment of relative humidity of 60%, with a probe of Skin Analysis SHP88 made by Courage ^+Khazaka Electronic Gmbh, Germany. […] Table 3. The change of moisture retention over time after applying vital moisture creams, was expressed in terms of capacitance increase ratio, %, measured at 22°C and RH 65%.

## CC(O)CCO (stereo not drawn) [1,3-BG, 1,3-Butyl Glycol]
[1]
  Draize Score: 0
[2]
  Capacitance Increase Ratio, %: 73.2%

## OCC(O)CO [Glycerol]
Pig skin [3]; Time 0 hour
  Difference Corneometry, %: 48.. %
Pig skin [3]; Time 1 hour
  Difference Corneometry, %: 32%
Pig skin [3]; Time 2 hour
  Difference Corneometry, %: 20%
Pig skin [3]; Time 4 hour
  Difference Corneometry, %: 17%
Pig skin [3]; Time -1 hour
  Difference Corneometry, %: 100%
Pig skin [4]; Time 0 hour
  Trans-Epidermal-Water-Loss (TEWL): 21.0.
Pig skin [4]; Time 1 hour
  Trans-Epidermal-Water-Loss (TEWL): 19.5
Pig skin [4]; Time 2 hour
  Trans-Epidermal-Water-Loss (TEWL): 19.0
Pig skin [4]; Time 2 hour, listed as glycerol
  Trans-Epidermal-Water-Loss (TEWL): 10.0
Pig skin [4]; Time 4 hour
  Trans-Epidermal-Water-Loss (TEWL): 17.5
Pig skin [4]; Time -1 hour
  Trans-Epidermal-Water-Loss (TEWL): 24.7

## O=c1cc(CO)occ1O [Kojic Acid]
tyrosinase
  Inhibition of Tyrosinase Activity, %: 100.0%

## C[N+](C)(C)CC(=O)O [Natural Betaine]
[5]; after 2 hours, 22 °C, RH 60%
  Increase in Skin Moisture ΔCU: 12.3
[5]; relative to 5% Glycerol = 100
  Relative ΔCU %: 164%

## CC(O)CO (stereo not drawn) [Propylene Glycol]
[6]; Time 0 min
  Capacitance Increase Ratio, %: 0%
[6]; Time 5 min
  Capacitance Increase Ratio, %: 105%
[6]; Time 10 min
  Capacitance Increase Ratio, %: 57%
[6]; Time 20 min
  Capacitance Increase Ratio, %: 51%
[6]; Time 40 min
  Capacitance Increase Ratio, %: 40%
[6]; Time 80 min
  Capacitance Increase Ratio, %: 38%
[6]; Time 120 min
  Capacitance Increase Ratio, %: 36%

## O=C1O[C@H]([C@@H](O)CO)C(O)=C1O [Vitamin C]
tyrosinase
  Inhibition of Tyrosinase Activity, %: 99.4%
